The values below are quoted from earlier work in patent US20260199259A1, “CONTROLLED LIPID SELF-ASSEMBLY FOR SCALABLE MANUFACTURING OF NEXTGENERATION IMMUNE STIMULATING COMPLEXES” (MASSACHUSETTS INSTITUTE OF TECHNOLOGY, priority 2022, published 2026).

One data set has as its system chick embryo eggs. The note with it: measured by lethal dose in chick embryo eggs.

Regarding 4′-monophosporyl lipid A [MPLA], the “factor of toxicity reduction relative to LPS” value in the data set on chick embryo eggs is listed as “more than 1000”. QS-21: the micelle size (aqueous solutions) is listed as ~ 7 nm. Besides, the solubility entry (in PBS) was “up to 30 mg/mL”.
